Data set [1] deals with T1, Cytochrome P450 11B2, mitochondrial (Rattus norvegicus, UniProt P30099).
T1 sequence (P30099 whole entry): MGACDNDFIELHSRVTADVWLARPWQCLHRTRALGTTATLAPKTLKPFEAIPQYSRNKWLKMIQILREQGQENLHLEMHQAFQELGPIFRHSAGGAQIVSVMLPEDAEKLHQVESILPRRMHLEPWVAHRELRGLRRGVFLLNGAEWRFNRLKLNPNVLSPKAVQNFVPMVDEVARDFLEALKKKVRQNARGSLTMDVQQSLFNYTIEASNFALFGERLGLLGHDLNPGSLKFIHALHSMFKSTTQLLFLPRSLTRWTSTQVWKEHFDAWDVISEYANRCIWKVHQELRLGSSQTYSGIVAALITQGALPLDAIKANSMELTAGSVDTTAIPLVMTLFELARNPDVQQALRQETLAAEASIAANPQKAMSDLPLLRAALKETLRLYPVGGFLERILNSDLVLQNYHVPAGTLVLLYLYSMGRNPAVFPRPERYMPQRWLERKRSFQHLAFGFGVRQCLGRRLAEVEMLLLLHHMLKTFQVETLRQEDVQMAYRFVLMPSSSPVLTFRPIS

Data set [2] concerns the target T2, Cytochrome P450 18 hydroxylase (Cytochrome P450 11B2, mitochondrial) (Homo sapiens, UniProt P19099).
T2 sequence (P19099 whole entry): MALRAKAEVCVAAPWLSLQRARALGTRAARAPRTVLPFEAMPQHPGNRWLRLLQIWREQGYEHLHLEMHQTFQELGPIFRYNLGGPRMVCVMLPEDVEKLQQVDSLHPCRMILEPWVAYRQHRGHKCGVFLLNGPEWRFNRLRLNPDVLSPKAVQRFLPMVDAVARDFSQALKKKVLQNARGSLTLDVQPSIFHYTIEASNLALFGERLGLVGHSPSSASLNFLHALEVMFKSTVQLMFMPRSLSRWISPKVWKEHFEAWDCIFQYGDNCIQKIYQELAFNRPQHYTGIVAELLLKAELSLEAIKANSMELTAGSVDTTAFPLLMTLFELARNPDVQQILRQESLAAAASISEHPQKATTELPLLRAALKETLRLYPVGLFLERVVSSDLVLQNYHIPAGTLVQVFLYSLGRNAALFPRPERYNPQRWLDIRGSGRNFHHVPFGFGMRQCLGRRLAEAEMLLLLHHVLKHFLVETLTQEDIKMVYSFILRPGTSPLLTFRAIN
Briefly: in vitro. As to conditions: cattle.

The target of data set [3] is T3, Cytochrome P450 17 (Steroid 17-alpha-hydroxylase/17,20 lyase) (Rattus norvegicus, UniProt P11715).
T3 sequence (P11715 whole entry): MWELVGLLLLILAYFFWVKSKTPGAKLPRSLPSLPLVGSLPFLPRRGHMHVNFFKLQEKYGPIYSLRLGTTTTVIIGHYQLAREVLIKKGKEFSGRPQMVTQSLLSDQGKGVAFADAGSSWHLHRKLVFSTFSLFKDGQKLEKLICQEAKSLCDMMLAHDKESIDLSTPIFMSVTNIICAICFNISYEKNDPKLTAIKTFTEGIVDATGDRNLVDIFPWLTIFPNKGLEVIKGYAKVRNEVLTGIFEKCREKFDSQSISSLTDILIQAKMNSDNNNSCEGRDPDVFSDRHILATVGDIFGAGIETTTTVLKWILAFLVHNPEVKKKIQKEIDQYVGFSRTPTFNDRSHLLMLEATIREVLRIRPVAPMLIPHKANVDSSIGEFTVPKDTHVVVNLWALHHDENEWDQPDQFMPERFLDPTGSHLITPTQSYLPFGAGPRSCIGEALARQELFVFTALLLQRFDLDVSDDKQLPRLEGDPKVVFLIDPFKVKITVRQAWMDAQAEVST
Description: in vitro.

Data set [4] is filed under the species Rattus norvegicus. The format is functional.
Data set [5] addresses T4, Steroid 17-alpha-hydroxylase/17,20 lyase (Rattus norvegicus, UniProt P11715).
T4 sequence (P11715 whole entry): T3 sequence (P11715 whole entry)
Conditions: 125 µM.

For data set [6], the target named is T5, Aromatase (Rattus norvegicus, UniProt P22443).
T5 sequence (P22443 whole entry): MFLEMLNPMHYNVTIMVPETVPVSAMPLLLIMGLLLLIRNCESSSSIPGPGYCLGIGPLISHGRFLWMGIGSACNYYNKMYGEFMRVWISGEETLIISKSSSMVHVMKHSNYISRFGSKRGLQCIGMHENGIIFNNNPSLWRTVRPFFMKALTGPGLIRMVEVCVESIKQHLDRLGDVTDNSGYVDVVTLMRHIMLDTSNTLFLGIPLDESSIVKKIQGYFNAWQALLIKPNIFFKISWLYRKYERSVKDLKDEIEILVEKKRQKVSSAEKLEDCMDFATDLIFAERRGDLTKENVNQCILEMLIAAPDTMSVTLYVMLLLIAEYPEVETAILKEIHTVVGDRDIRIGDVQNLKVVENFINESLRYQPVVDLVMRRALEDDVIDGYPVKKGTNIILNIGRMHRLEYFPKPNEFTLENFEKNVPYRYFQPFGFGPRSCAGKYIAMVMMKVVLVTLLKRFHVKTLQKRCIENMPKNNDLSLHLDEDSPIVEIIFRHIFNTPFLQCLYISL
As to conditions: in vivo, 30 mg/kg.

The species entered for data set [7] is Rattus norvegicus. The format is functional. The source holds these as a separate data set.
The species entered for data set [8] is Rattus norvegicus. It is filed as functional. This is another data set of the same source.
The species named for data set [9] is Rattus norvegicus. The format is functional. This is another data set of the same source.
The species named for data set [10] is Rattus norvegicus. The format is functional. This is another data set of the same source.
The species named for data set [11] is Rattus norvegicus. It is filed as functional. The source holds these as a separate data set.
The species named for data set [12] is Rattus norvegicus. It is filed as functional. The source holds these as a separate data set.
For data set [13], the species on record is Rattus norvegicus. It is filed as functional. This is another data set of the same source.
Data set [14] addresses T6, Cytochrome P450 11B1, mitochondrial (Homo sapiens, UniProt P15538).
T6 sequence (P15538 whole entry): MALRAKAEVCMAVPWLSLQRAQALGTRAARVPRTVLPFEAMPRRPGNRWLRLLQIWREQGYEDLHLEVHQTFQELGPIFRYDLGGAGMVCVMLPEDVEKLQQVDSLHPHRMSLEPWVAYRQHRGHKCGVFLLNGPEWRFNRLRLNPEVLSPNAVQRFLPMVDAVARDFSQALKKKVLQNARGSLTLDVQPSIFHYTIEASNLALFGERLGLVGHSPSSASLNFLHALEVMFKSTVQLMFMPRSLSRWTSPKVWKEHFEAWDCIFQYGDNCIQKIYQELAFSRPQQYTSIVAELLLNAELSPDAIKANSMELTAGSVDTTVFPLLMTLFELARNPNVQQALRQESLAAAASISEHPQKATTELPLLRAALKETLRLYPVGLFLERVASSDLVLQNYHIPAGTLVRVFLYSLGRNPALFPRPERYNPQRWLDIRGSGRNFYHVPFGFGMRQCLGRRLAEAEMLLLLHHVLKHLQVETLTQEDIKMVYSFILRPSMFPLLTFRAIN

The species entered for data set [15] is Rattus norvegicus. It is filed as functional. This is another data set of the same source.
The species named for data set [16] is Rattus norvegicus. It is filed as functional. This is another data set of the same source.
For data set [17], the species on record is Rattus norvegicus. The format is functional. The source holds these as a separate data set.
Data set [18] deals with T5, Aromatase.
Data set [19] is filed under the species Rattus norvegicus. The format is functional. This is another data set of the same source.
Data set [20] is filed under the species Rattus norvegicus. The format is functional. The source holds these as a separate data set.
For data set [21], the species on record is Rattus norvegicus. It is filed as functional. The source holds these as a separate data set.
Data set [22] has as its target T1, Cytochrome P450 11B2, mitochondrial. The source holds these as a separate data set.
Data set [23] shares this target. The source holds these as a separate data set.
The target in data set [24] is T5, Aromatase. As to conditions: in vivo, 30 mg/kg. The source holds these as a separate data set.
The target in data set [25] is T5, Aromatase. As to conditions: in vivo, 30 mg/kg. The source holds these as a separate data set.
The target in data set [26] is T5, Aromatase. Conditions: in vivo, 30 mg/kg. The source holds these as a separate data set.
Data set [27] is filed under the species Rattus norvegicus. It is filed as functional. The source holds these as a separate data set.
The species named for data set [28] is Rattus norvegicus. The format is functional. The source holds these as a separate data set.
For data set [29], the species on record is Rattus norvegicus. The format is functional. This is another data set of the same source.
For data set [30], the species on record is Rattus norvegicus. The format is functional. This is another data set of the same source.
In data set [31] the target is T5, Aromatase. Conditions: in vivo, 30 mg/kg. This is another data set of the same source.

`Oc1ccc2c(c1)C1C(CC2)C1c1ccncc1` (stereo not given) returned an IC50 in data set [1] of 7 µM.
On to `COc1cccc2c1CCC1C(c3ccncc3)C21` (stereo not given), for which the inhibition at 1 µM in data set [2] is 38%. At 125 µM the inhibition in [3] was 51%.
As to `COc1ccc2c(c1)C1C(CC2)C1c1ccncc1` (stereo in doubt; 4), the “Change of tumor area” value is on record as 55% in the data set filed under Rattus norvegicus [4] and 29% in the data set filed under Rattus norvegicus [19]. For the same compound, in data set [5], the Inhibition is 47%. For the same compound, the Effect on Aromatase [6] is 132. The values for the IC50 (in [1]; in [14]; against Aromatase [18]) were 15 µM, 75 µM and 0.265 µM, respectively. Also, the Tumors in the data set filed under Rattus norvegicus [7] worked out at 37%; in the data set listed under Rattus norvegicus [8], 15%; in the data set filed under Rattus norvegicus [9], 15%; in the data set listed under Rattus norvegicus [10], 18%; in the data set listed under Rattus norvegicus [11] it was 52%; in the data set filed under Rattus norvegicus [12] it was 0%. Moreover, the Tumors in the data set filed under Rattus norvegicus [16] came out at 43%; in the data set listed under Rattus norvegicus [21] it was 20%. Further, 1 µM produced 45% inhibition in data set [2]. Further, the No. of tumors worked out at 10 in the data set filed under Rattus norvegicus [13], 5 in the data set listed under Rattus norvegicus [15], 33 in the data set filed under Rattus norvegicus [17] and 25 in the data set filed under Rattus norvegicus [20].
Take `CCC1(c2ccc(N)cc2)CCC(=O)NC1=O` (stereo not given) [AMINOGLUTETHIMIDE]: the IC50 in data set [22] stood at 80 µM; in data set [23], 50 µM.
For `C[C@]12CCC(=O)C=C1CC[C@@H]1[C@@H]2CC[C@]2(C)C(=O)CC[C@@H]12` [ANDROSTENEDIONE], the Mean at Aromatase [24] was found to be 138; at Aromatase [25], 187; on Aromatase [26], 202.
Compound `COc1ccc2c(c1)C1C(CC2)C1(C)c1ccncc1` (stereo not given) yielded an Effect on Aromatase [6] of 139. Besides, in [3], the inhibition at 125 µM turned out to be 68%.
As for `COc1ccc2c(c1)C1C(CC2)C1c1ccncc1` (stereo in doubt; (-)-4), the Inhibition in [5] stood at 45%. Further, the figures for the IC50 in data set [1] and in data set [14] were 10 µM and 30 µM, respectively.
In [22], `c1ccc2c(c1)CCC1C(c3ccncc3)C21` (stereo not given) returned a half-maximal inhibitory concentration (IC50) of 3 µM. Further, the Tumors stood at 16% in the data set filed under Rattus norvegicus [8], 47% in the data set filed under Rattus norvegicus [11], 28% in the data set filed under Rattus norvegicus [28] and 9% in the data set listed under Rattus norvegicus [30]. Moreover, the No. of tumors in the data set listed under Rattus norvegicus [27] came out at 32; in the data set filed under Rattus norvegicus [29], 1. At 1 µM the inhibition in [2] was 55%. The same compound gave an inhibition at 125 µM in data set [3] of 36%. Besides, the Mean at Aromatase [31] stood at 124. In addition, the “Change of tumor area” value in the data set listed under Rattus norvegicus [19] was determined as 36%.
As for `Oc1ccc2c(c1)CCC1C(c3ccncc3)C21` (stereo not given), in data set [2], the inhibition at 1 µM worked out at 36%. In [3], testing at 125 µM gave an inhibition of 41%.
`COc1cc2c(cc1Br)CCC1C(c3ccncc3)C21` (stereo in doubt; 7) gave an Effect at Aromatase [6] of 176.
Consider `COc1ccc2c(c1)C1C(CC2)C1c1ccncc1` (single isomer, unassigned; (+)), for which the IC50 in data set [1] was 6 µM; in [14], 95 µM. The same compound gave an inhibition at 125 µM in data set [3] of 54%.

The values above are taken from ChEMBL document CHEMBL1128393 (J Med Chem, 1995).
